Test results published in patent publication US20080249024A1, “Peptides facilitating or inhibiting a nterograde transport” (priority 2006, published 2008).
Where “and” joins values, the source holds several entries; their conditions need not be identical. Equal entries are not always repeated. Where two headings read alike, the source gives them in different places.

How the values were obtained:
[1] = molecular target: axoplasmic motors (squid giant axon); experiment: cell-based or functional assay
[2] = molecular target: T1, kinesin 3 (Kif1a) (Rattus norvegicus, UniProt F1M4A4); experiment: Peptide-bead pull-down from rat brain extract, Western blot for kinesin 3; type: binding; details: Western blot of beads and supernatants
T1 construct: tissue Pelco; host or cells: rat brain cortex extract
T1 sequence (F1M4A4 whole entry): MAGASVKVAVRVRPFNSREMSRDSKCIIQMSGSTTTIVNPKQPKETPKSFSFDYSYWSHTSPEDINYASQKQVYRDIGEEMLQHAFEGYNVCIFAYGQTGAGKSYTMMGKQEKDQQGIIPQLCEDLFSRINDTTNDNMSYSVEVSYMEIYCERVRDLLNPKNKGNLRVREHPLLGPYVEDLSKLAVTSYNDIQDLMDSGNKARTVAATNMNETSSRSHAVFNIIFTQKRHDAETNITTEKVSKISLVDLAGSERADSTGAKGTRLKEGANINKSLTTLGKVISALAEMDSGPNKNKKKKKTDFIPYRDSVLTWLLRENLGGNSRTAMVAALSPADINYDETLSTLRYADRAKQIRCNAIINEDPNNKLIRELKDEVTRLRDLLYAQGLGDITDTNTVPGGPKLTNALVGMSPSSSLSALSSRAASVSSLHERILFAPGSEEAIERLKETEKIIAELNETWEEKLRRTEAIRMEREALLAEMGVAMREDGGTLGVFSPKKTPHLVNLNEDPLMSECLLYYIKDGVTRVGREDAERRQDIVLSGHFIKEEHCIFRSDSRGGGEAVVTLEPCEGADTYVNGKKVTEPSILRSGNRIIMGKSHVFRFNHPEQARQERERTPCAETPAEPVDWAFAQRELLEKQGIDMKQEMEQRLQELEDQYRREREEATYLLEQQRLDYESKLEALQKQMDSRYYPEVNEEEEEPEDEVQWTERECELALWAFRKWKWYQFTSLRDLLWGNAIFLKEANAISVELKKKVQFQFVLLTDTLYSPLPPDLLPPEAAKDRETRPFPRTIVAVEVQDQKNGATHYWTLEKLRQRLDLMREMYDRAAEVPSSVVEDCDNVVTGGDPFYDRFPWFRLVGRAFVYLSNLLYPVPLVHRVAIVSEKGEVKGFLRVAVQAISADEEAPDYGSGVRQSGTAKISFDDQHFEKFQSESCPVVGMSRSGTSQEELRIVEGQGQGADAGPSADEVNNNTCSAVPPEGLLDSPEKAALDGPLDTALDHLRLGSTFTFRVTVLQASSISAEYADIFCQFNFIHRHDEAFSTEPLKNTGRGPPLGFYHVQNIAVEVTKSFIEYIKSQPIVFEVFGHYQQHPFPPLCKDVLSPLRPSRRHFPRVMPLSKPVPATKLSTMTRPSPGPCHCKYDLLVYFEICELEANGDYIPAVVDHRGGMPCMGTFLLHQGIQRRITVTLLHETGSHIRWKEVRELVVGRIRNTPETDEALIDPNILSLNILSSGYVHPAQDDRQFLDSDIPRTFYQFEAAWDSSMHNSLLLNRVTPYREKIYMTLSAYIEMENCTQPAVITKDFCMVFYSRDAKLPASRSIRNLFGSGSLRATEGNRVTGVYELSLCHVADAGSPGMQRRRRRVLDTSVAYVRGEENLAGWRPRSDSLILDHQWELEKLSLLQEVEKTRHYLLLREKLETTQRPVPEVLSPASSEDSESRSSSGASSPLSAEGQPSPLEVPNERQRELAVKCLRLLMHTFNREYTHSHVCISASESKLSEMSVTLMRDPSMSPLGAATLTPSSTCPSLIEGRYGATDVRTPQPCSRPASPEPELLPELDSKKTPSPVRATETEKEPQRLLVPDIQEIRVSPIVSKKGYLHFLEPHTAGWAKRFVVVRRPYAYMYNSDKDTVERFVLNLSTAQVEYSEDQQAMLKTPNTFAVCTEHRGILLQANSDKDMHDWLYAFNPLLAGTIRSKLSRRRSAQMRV
Description: (§1) Rat brain extract was prepared from frozen rat brain (Pelco). Rat brain was cut from a frozen block of cortex, weighed, and solubilized in 1% Triton and buffer with sonication (3 times 1 sec bursts with a Branson sonicator set at microtip 4). After clarifying centrifugation at 15,000×g for 15 min, 10 μl of extract in pulldown buffer (Lazarov et al. 2005, supra) was layered over carboxylated beads conjugated to various peptides according to the manufacturer's instructions (Dynal).

[3] = system: giant squid axon; experiment: JIP peptide-coated bead transport in giant squid axon, confocal microscopy; type: cell-based; details: injection site imaged at 0 and 55 min
Description: (§2) JIP peptide was conjugated to 100 nm fluorescent nanospheres (beads) following the protocol described in Example 1. Washed conjugated beads were injected into a freshly dissected giant squid axon and transport imaged by confocal microscopy.

[4] = system: giant axon; experiment: Comparison of velocity of JIP and APP peptide beads and carboxylated negative charge beads in the giant axon (Metamorph); type: cell-based, squid
Description: as §2
Movements of beads conjugated to APP-C, JIP, or unconjugated (negative charge) after injection in the axon were measured using Metamorph imaging software (Molecular Devices). Average velocity of JIP beads was 20% faster than APP or negative charge. As is known, negative charge beads are transported in the axon but less frequently than peptide-conjugated beads.
The different surfaces of the beads influence the average rate of movements. In this experiment, movements between frames were measured only when beads moved into and out of the frame.

[5] = system: giant axon of the squid; experiment: Transport of peptide- or protein-conjugated fluorescent beads injected into the squid giant axon, confocal time-lapse; type: cell-based, squid (Loligo pealei); details: for Max. Velocity / Ave. Velocity (instantaneous): beads conjugated to peptide/protein; for Ave. Velocity (instantaneous): number of moves in brackets; for transport behaviour of conjugated beads in the axon (in words): co-injected with other beads into the same axon; for beads leaving the injection site per minute: 10^6 beads injected
Description: The giant axon was obtained from squid (Loligo pealei) at the Marine Biological Laboratory, Woods Hole, Mass. (46). Red and green beads, each conjugated to a different peptide (1.5 nl at […]), were loaded into a mercury micropipette either as a mixture or in equal volumes separated by oil (Bearer, E. L., et al., (2000) Proc Natl Acad Sci USA 97, 8146-50; Terasaki, M., S. et al., (1995) Proc Natl Acad Sci U S A 92, 11500-3; Jaffe, L. A. & Terasaki, M. (2004) Methods Cell Biol 74, 219-42, FIG. S1). For each pair of beads the order of injection was alternated such that each color would have an opportunity to recruit motors first.
Carboxylated microspheres (beads, 0.1 μm diameter) with red (580/605 nm) and green (505/515 nm) fluorescence (Invitrogen) were washed through a Low Binding Durapore filter (100 nm cut-off, Millipore). Uncoated beads were diluted in motility buffer (Brady, S. et al., (1982) Science 218, 1129-31) and injected without further treatment.
Custom synthesized peptides (Aves Labs, Inc) were cross-linked to beads via their amino terminus to allow presentation of the carboxy end of the peptide to the cytoplasm, mimicking the physiological orientation of APP. APP constructs (C99 and APP-680) were generated by PCR from human APP-YFP in pShuttleCMV (E.-M. Mandelkow and Jacek Biernat, Max Planck Institute, Hamburg, Germany (Stamer, K., V. et al., (2002) J Cell Biol 156, 1051-63)). APP-YFP is actively transported in neurons (Stamer et al., supra). For C99, the YFP moiety was replaced with mRFP (Campbell, R. E., et al., (2002) Proc Natl Acad Sci USA 99, 7877-82.) and for APP-680 with GFP. Each construct was cross-linked to a bead of similar spectrum as the fluorescent protein, and conjugated beads individually checked for monochromic emission by confocal. […] Accuracy of all sequences was confirmed by sequencing. Recombinant protein was generated in PC12 cells and purified by anti-fluorescent protein affinity columns (Vector Labs). Protein concentrations were determined by Bio-Rad protein assay, and composition and purity determined by SDS-PAGE.
Peptides or recombinant proteins (20 μl of a 2 mg/ml stock) were mixed in 300 μl of 50 mM MES buffer with 10 μl of 2% beads for 15 min. Cross-linker (1-(3-dimethylaminopropyl)-3-ethylcarbodiimide hydrochloride; EDAC, Molecular Probes) was added to a concentration of 10 μg/ml and the solution adjusted to pH 6.5 with 1M NaOH. After 5 hr the reaction was quenched by adding 2M glycine for a final of 0.1M. Conjugation was confirmed by analyzing peptide concentrations before and after by protein assay. Protein:bead ratio was adjusted that equivalent molar amounts of each protein would be conjugated to the beads. Efficiency of conjugation was relatively similar for all peptides. Binding sites on the beads (10^6) were saturated by using 300-1000 fold excess peptide. For C99 and APP-680, protein concentration was adjusted so that 3,000 copies per bead were conjugated to the surface and unoccupied sites blocked with glycine.
Detection parameters were set to ensure that each color was uniquely detected in its appropriate channel by imaging beads on coverslips with the Zeiss LSM 510 Laser Scanning Confocal Microscope. Fluorescent bead movements in the axon were collected with 10× Plan Neofluor 0.3NA air, and 40× Achroplan 0.8NA water correctible objectives. Green and red fluorescence and phase images were collected simultaneously using Zeiss LSM510 multi-tracking.
Rates and trajectories of APP-C beads were measured by stepping through the frames in either the Zeiss LSM browser or NIH ImageJ (http://rsb.info.nih.gov/nih-image/). Only particles moving into and out of a frame were included. Rates of moving particles were statistically analyzed and graphed using Microsoft Excel.

[6] = system: kinesin 1 heavy chain; experiment: Peptide-bead pull-down from rat brain extract, Western blot for kinesin 1; type: binding; details: Western blot of beads and supernatants
Description: as §1

[7] = molecular target: axoplasmic motors (squid giant axon); experiment: cell-based or functional assay; remark: listed apart in the source

C99, a polypeptide containing the C-terminal 99 amino acids of human APP (with mRFP in place of YFP) (from UniProt P05067 597-695)
percent of beads that move (squid giant axon, no peptide) [1]: 39.5%
percent of beads that move after pre-injection of soluble APP-C peptide [1]: 10.3%

FVE YTC PTE DIY LE (FVEYTCPTEDIYLE) [JIP-1]
pull-down of kinesin 3 (Kif1a) from brain extract [2]: preferentially pulls down kinesin 3 (Kif1a)
transport of JIP beads in the axon (in words) [3]: a stream of beads can be seen heading towards the synapse
average velocity faster than APP or negative charge beads [4]: 20%
speed relative to negative charge beads (in words) [4]: almost twice as fast
Max velocity ([4]; beads in the giant axon): 0.96 μm/sec
Ave velocity ([4]; instantaneous velocity of beads in the axon, only beads moving into and out of the frame): 0.5 +/− 0.01 μm/sec

GYENPTYKFFEQMQN (listed as Homo sapiens) [APP-C, tested conjugated to beads or as soluble peptide]
Max. Velocity [5]: 0.9 μm/s
Ave. Velocity (instantaneous) [5]: 0.41 +/− 0.07 (227) μm/s
pull-down of kinesin 1 heavy chain from brain extract [6]: preferentially bind to kinesin 1 heavy chain

GYENPTYKYFE-MQN (GYENPTYKYFEMQN; listed as Loligo pealei) [APP-C (squid)]
Max. Velocity [5]: 0.9 μm/s
Ave. Velocity (instantaneous) [5]: 0.53 +/− 0.09 (54) μm/s

C99: recombinant C-terminal 99 amino acids of human APP with mRFP, full cytoplasmic domain; 3,000 copies per 100 nm bead
percent of beads that move, with peptide ([5]; axon pre-injected with soluble APP-C peptide, average of 3 100-frame videos): 10.3%+/−4.4
Max. Velocity [5]: 1.46 μm/s
Ave. Velocity (instantaneous) [5]: 0.66+/−0.08 μm/s and 0.66 +/− 0.08 (194) μm/s
transport behaviour of conjugated beads in the axon (in words) [5]: both types of beads were transported
percent of beads that move ([5]; without peptide, moving = translocated >3 consecutive frames, average of 3 100-frame videos, within 500 μm of injection site): 39.5%+/−4.5

GEPYFEMNYNTKFQQ (listed as Homo sapiens) [APP-C^j, reference compound]
beads leaving the injection site per minute [5]: None

HMNCQNGKWDSDPSGTKTCI (listed as Homo sapiens) [APP-N, reference compound]
beads leaving the injection site per minute [5]: ~0.001 ×10^3 per minute
transport behaviour of conjugated beads in the axon (in words) [5]: remained stationary at the injection site

GYENPTYKFFEQMQN
percent of beads that move (squid giant axon, no peptide) [7]: 36%
percent of beads that move after pre-injection of soluble APP-C peptide [7]: 0%
